Assay results from US7833532B2, “Immunogenic lipopeptides comprising T-helper and cytotoxic T lymphocyte (CTL) epitopes” (The Council of The Queensland Institute of Medical Research, priority 2002, dated 2010).
Values joined by “and” are separate entries in the source; they are usually repeats but may differ in a detail not shown here. Equal entries are not always repeated.

Assays:
splenocytes = assay: IFN-gamma secreting splenocytes in mice vaccinated with […] peptides and challenged with B16-OVA; type: in vivo, C57BL/6 mice; conditions: 20 nmoles s.c., B16-OVA challenge; for No. IFN-γ secreting splenocytes per 10^6 splenocytes, Average: average of three samples; for No. IFN-γ secreting splenocytes per 10^6 splenocytes: individual samples, in vitro stimulation with SIINFEKL
Method: (§1) Each of 9 C57BL/6 mice (8-10 wks) were immunised subcutaneously with 20 nmoles of lipidated [P25]-Lys(Pam2Cys-Ser-Ser)-[[…]] ([…] disclosed as SEQ ID NO: 173) or non-lipidated [P25]-Lys-[[…]] ([…] disclosed as SEQ ID NO: 173) peptide in 100 μl volume of saline. In the case of lipidated peptide, lipid was attached between the two epitopes at the approximate centre of the molecule.
CTL-specific IFN-γ-secreting cells were enumerated by an ELISPOT assay modified from that of Murali-Krishna et al., Immunity 8, 177-187, 1998. Flat-bottom polyvinyl chloride microtiter plates (96-well: Dynatech) were coated overnight with 50 μl of rat anti-(mouse IFN-γ) antibody (clone R4-14a2) at 5 μg/ml in PBS. Unoccupied sites on the wells were then blocked by incubation for 1 h with 10 mg of bovine serum albumin/ml in PBS, and the plates were washed three times with PBS containing 0.05% Tween 20 (PBST). Twofold dilutions of spleen or lymph node cells in T-cell medium were then added to the wells, together with 5×10^5 irradiated (2,200 rads, ^60Co source) syngeneic spleen cells from unimmunized mice and 10 U of recombinant human interleukin-2 (Pharmingen, San Diego, Calif.)/well. Cells were incubated at 37° C. in 5% CO2 for 18 h in the presence or absence of the CTL peptide at a concentration of 1 μg of peptide/ml. Cells were then lysed and removed by rinsing the plates, initially with distilled water and then PBST. Then, 50 μl of a 1/500 dilution of biotinylated anti-(mouse IFN-γ) antibody (clone XMG 1.2; Pharmingen) was added, and the plates were incubated at room temperature for 2 h. Plates were again washed, and 50 μl of streptavidin-alkaline phosphatase (Pharmingen; 1/400 dilution in 5 mg of bovine serum albumin/ml of PBST) was added to each well; the mixtures were then incubated for a further 2 h. […] When blue-green spots had developed, the plates were washed with water and dried, and the spots were counted with the aid of an inverted microscope.
The ability of the lipopeptide vaccine containing the ovalbumin CTL epitope ([…]) (SEQ ID NO: 173) to induce protection against melanoma cells expressing this CTL epitope (B16-OVA cells) was assessed. IFN-γ production was determined in mice inoculated with lipopeptide comprising a CDV-F T-helper epitope (P25) and a CTL epitope ([…]) (SEQ ID NO: 173) of ovalbumin linked via the epsilon amino group of an internal lysine residue positioned between said epitopes to Pam2Cys (i.e. the peptide [P25]-Lys(Pam2Cys-Ser-Ser)-[[…]] ([…] disclosed as SEQ ID NO: 173) listed in FIG. 2 and based upon SEQ ID NO: 174). […] (SEQ ID NO: 173) and the number of IFN-γ producing cells per 1,000,000 splenocytes was measured.

B16-OVA cells = assay: Protection against B16-OVA melanoma challenge (tumour growth); type: in vivo, C57BL/6 mice; conditions: 20 nmoles s.c., 2×10^5 B16-OVA cells 14 days later
Description: FIG. 13 is a graphical representation showing protection against B16 melanoma with lipopeptide vaccination. C57BL/6 mice were vaccinated with 20 nmoles lipidated peptide [P25]-Lys(Pam2Cys-Ser-Ser)-[[…]] ([…] disclosed as SEQ ID NO: 173) (open circles), non-lipidated peptide [P25]-Lys-[[…]] ([…] disclosed as SEQ ID NO: 173) (open triangles) or with PBS (open squares) subcutaneously in the base of the tail. Mice were then challenged s.c. on the back 14 days later with 2×10^5 B16-OVA cells (n=6 per group) and tumour growth monitored as described (Anraku, et al., J Virol. 76; 3791-3799, 2002).
as §1
14 days after inoculation with non-lipidated [P25]-Lys-[[…]] ([…] disclosed as SEQ ID NO: 173) or lipidated peptide [P25]-Lys(Pam2Cys-Ser-Ser)-[[…]] […] Growing tumors were monitored, and the animals were sacrificed when tumor size reached 15 by 15 mm. Mean tumor area was calculated for each treatment group at the indicated number of days after the tumor challenge.

[1] = system: Lewis Lung tumour cells transfected with ovalbumin; assay: Therapeutic treatment of Lewis Lung tumour expressing ovalbumin (tumour incidence and survival); type: in vivo, mice; conditions: 20 nmoles s.c. 4 and 11 days after tumour cells; versus non-lipidated peptide or PBS
Method: FIG. 14 is a graphical representation showing therapeutic treatment of Lewis Lung tumour with a lipopeptide immunogen, as determined by the percentage of animals that remain tumor free following immunization. Mice were injected with 3×10^4 Lewis Lung tumour cells that had been transfected with ovalbumin and therefore expressed the CTL epitope […] (SEQ ID NO: 173) [Nelson et al. J Immunol. 166: 5557-5566, 2001]. Four days after receiving tumour cells, animals were inoculated with 20 nmoles lipidated peptide [P25]-Lys(Pam2Cys-Ser-Ser)-[[…]] ([…] disclosed as SEQ ID NO: 173) (open circles), non-lipidated peptide [P25]-Lys-[[…]] […] Animals were monitored for tumour incidence; animals were euthanased when tumour area exceeded 100 mm^2.
FIG. 15 is a graphical representation showing therapeutic treatment of Lewis Lung tumour with a lipopeptide immunogen, as determined by measuring survival of animals following immunization. […] Animals were monitored for survival; animals were euthanased when tumour area exceeded 100 mm^2.
Mice were injected with 3×10^4 Lewis Lung tumour cells that had been transfected with ovalbumin and therefore expressed the CTL epitope (Nelson et al., J Immunol. 166: 5557-5566, 2001). […] Animals were monitored for tumour incidence and survival; animals were euthanased when tumour area exceeded 100 mm^2.

[2] = system: syngeneic spleen cells pulsed with the CTL determinant; conditions: mouse
Mem 71 influenza virus = conditions: in vivo
D1 cells = assay: Maturation of D1 dendritic cells (surface MHC class II, flow cytometry); type: cell-based, BALB/c mouse; conditions: D1 cells, overnight incubation, 0.45 nmoles/mL; LPS positive control

Compound: [P25]-Lys(Pam2Cys-Ser-Ser)-[SIINFEKL]: peptide [P25]-Lys-[SIINFEKL] and a lipid of the Formula (IV) conjugated to the epsilon-amino group of the internal lysine (KLIPNASLIENCTKAELKSIINFEKL; Pam2Cys-Ser-Ser lipid on internal lysine)
- No. IFN-γ secreting splenocytes per 10^6 splenocytes, Average (splenocytes): 227 per 10^6 splenocytes
- No. IFN-γ secreting splenocytes per 10^6 splenocytes (splenocytes): 284 per 10^6 splenocytes and 205 per 10^6 splenocytes and 192 per 10^6 splenocytes
- tumour growth (in words) (B16-OVA cells; over a 15 day period): No tumour growth
- percentage of animals with fewer lesions developing (tumour free) [1]: significantly higher
- survival [1]: survived for longer

Compound: CCCCCCCCCCCCCCCC(=O)N[C@@H](CSCC(COC(=O)CCCCCCCCCCCCCCC)OC(=O)CCCCCCCCCCCCCCC)C(=O)N[C@@H](CO)C(=O)N[C@@H](CO)C(=O)NCCCC[C@H](NC(=O)[C@H](CO)NC(=O)[C@H](CCCCN)NC(=O)[C@H](CC(C)C)NC(=O)[C@H](CCC(=O)O)NC(=O)[C@@H](NC(=O)CNC(=O)[C@H](CCCCN)NC(=O)[C@@H](NC(=O)[C@H](CCC(N)=O)NC(=O)[C@H](Cc1ccccc1)NC(=O)[C@H](CCCNC(=N)N)NC(=O)[C@H](CC(N)=O)NC(=O)[C@H](CC(N)=O)NC(=O)[C@H](CC(C)C)NC(=O)[C@H](C)N)[C@@H](C)CC)C(C)C)C(=O)N[C@H](C(=O)N[C@@H](Cc1ccc(O)cc1)C(=O)N[C@@H](CCC(N)=O)C(=O)N[C@@H](CCCNC(=N)N)C(=O)N[C@H](C(=O)N[C@@H](CCCNC(=N)N)C(=O)N[C@@H](C)C(=O)N[C@@H](CC(C)C)C(=O)N[C@H](C(=O)O)C(C)C)[C@@H](C)O)[C@@H](C)O (stereo partly drawn) [[Th]-Lys(Pam3Cys-Ser-Ser)-[CTL]]
- CTL determinant specific cytotoxicity (specific lysis) in vivo [2]: marked enhancement of specific lysis in vivo

Compound: ALNNRFQIKGVELKSKTYQRTRALV [[Th]-Lys-[CTL]]
- reduction in viral load in the lungs compared to PBS alone (Mem 71 influenza virus): 65%
- maturation of dendritic cells / up-regulation of MHC class II expression (comparative, in words) (D1 cells): least effective

Compound: KLIPNASLIENCTKAELKSIINFEKL [reference compound]
- No. IFN-γ secreting splenocytes per 10^6 splenocytes, Average (splenocytes): 14 per 10^6 splenocytes
- No. IFN-γ secreting splenocytes per 10^6 splenocytes (splenocytes): 18 per 10^6 splenocytes and 14 per 10^6 splenocytes and 10 per 10^6 splenocytes
- tumour size (B16-OVA cells; 15 day period): greater than 75 mm^2
